# From patent publication US8921555B2, “Substituted-1,3,8-triazaspiro[4.5]decane-2,4-diones” (Merck Sharp & Dohme Corp., priority 2009, dated 2014)
# pIC50: −log10 of the molar value.
# Target: T1, HIF-PHD2 (Homo sapiens, UniProt Q9GZT9)
# T1 construct: FLAG-tagged full length PHD2 expressed in and purified from baculovirus-infected Sf9 cells; FLAG; made in house; host or cells: baculovirus-infected Sf9 cells
# Assay: Assay for HIF-PHD2 Catalytic Activity (PHD2 Binding Activity)
# Format: biochemical
# Conditions: not given
# T1 sequence (Q9GZT9 whole entry): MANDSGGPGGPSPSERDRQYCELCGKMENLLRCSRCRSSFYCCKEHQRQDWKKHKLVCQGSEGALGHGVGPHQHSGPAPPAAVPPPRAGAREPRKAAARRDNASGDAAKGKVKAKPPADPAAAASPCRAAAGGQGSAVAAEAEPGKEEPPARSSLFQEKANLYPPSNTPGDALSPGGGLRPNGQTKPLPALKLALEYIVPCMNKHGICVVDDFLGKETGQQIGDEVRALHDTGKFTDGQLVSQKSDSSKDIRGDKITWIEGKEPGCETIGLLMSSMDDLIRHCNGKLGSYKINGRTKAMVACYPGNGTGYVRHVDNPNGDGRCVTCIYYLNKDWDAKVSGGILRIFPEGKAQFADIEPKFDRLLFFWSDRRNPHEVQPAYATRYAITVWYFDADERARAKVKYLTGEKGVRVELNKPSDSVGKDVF
row,SMILES,pIC50
1,"Cc1cccnc1CN1CCC2(CC1)C(=O)N(c1ccc(-c3ccccc3)cc1)C(=O)N2c1cccc(C(=O)O)n1 [Compound 1-14, 6-{3-biphenyl-4-yl-8-[(3-methylpyridin-2-yl)methyl]-2,4-dioxo-1,3,8-triazaspiro[4.5]dec-1-yl}pyridine-2-carboxylic acid]",7.70 to 9.30
2,CC(C)Oc1cccc(CN2CC[C@@]3(C[C@@H]2C)C(=O)N(c2ccccc2)C(=O)N3c2cccc(F)c2)c1 [Egbertson's Example 31],< 5.00
3,"COc1cc(O)nc(N2C(=O)N(c3ccc(-c4ccccc4)cc3)C(=O)C23CCN(Cc2ncccc2C)CC3)n1 [Compound 1-56, 3-biphenyl-4-yl-1-(4-hydroxy-6-methoxypyrimidin-2-yl)-8-[(3-methylpyridin-2-yl)methyl]-1,3,8-triazaspiro[4.5]decane-2,4-dione]",7.70 to 9.30
4,"Cc1cccnc1CN1CCC2(CC1)C(=O)N(c1ccc(-c3ccc(CC(=O)O)cc3)cc1)C(=O)N2c1ncccn1 [Compound 1-67, (4′-{8-[(3-methylpyridin-2-yl)methyl]-2,4-dioxo-1-pyrimidin-2-yl-1,3,8-triazaspiro[4.5]dec-3-yl}biphenyl-4-yl)acetic acid]",7.30 to 7.70
5,"CCOC(=O)c1ccc(N2C(=O)N(c3nccc(OC)n3)C3(CCN(Cc4ncccc4C)CC3)C2=O)cc1 [Compound 1-26, ethyl 4-{1-(4-methoxypyrimidin-2-yl)-8-[(3-methylpyridin-2-yl)methyl]-2,4-dioxo-1,3,8-triazaspiro[4.5]dec-3-yl}benzoate]",7.70 to 9.30
6,"Cc1cccnc1CN1CCC2(CC1)C(=O)N(c1ccc(-c3ccccc3)cc1)C(=O)N2c1ccncc1 [Compound 1-8, 3-biphenyl-4-yl-8-[(3-methylpyridin-2-yl)methyl]-1-pyridin-4-yl-1,3,8-triazaspiro[4.5]decane-2,4-dione]",7.30 to 7.70
7,"Cc1cccnc1CN1CCC2(C(=O)N(c3ccc(-c4ccccc4)cc3)C(=O)N2c2ncccn2)C(C(=O)O)C1 (stereo not shown) [Compound 3-8, 3-biphenyl-4-yl-8-[(3-methylpyridin-2-yl)methyl]-2,4-dioxo-1-pyrimidin-2-yl-1,3,8-triazaspiro[4.5]decane-6-carboxylic acid]",7.70 to 9.30
8,"Cc1cccnc1CN1CCC2(CC1)C(=O)N(c1ccc(-c3ccccc3)cc1)C(=O)N2c1ccnc(O)c1 [Compound 1-58, 3-biphenyl-4-yl-1-(2-hydroxypyridin-4-yl)-8-[(3-methylpyridin-2-yl)methyl]-1,3,8-triazaspiro[4.5]decane-2,4-dione]",7.70 to 9.30
9,"COc1ccnc(N2C(=O)N(c3ccc(-c4ccccc4)cc3)C(=O)C23CCN(Cc2nccn2CCC(=O)O)CC3)n1 [Compound 1-22, 3-(2-{[3-biphenyl-4-yl-1-(4-methoxypyrimidin-2-yl)-2,4-dioxo-1,3,8-triazaspiro[4.5]dec-8-yl]methyl}-1H-imidazol-1-yl)propanoic acid]",7.70 to 9.30
10,"O=C(O)CN1CCC2(CC1)C(=O)N(c1ccc(-c3ccccc3)cc1)C(=O)N2c1ncccn1 [Compound 2-5, (3-biphenyl-4-yl-2,4-dioxo-1-pyrimidin-2-yl-1,3,8-triazaspiro[4.5]dec-8-yl)acetic acid]",7.70 to 9.30
11,"CCOC(=O)C1CN(Cc2ncccc2C)CCC12C(=O)N(c1ccc(-c3ccccc3)cc1)C(=O)N2c1cc(O)ncn1 (single isomer, unassigned) [Compound 3-10, Ethyl 3-biphenyl-4-yl-1-(6-hydroxypyrimidin-4-yl)-8-[(3-methylpyridin-2-yl)methyl]-2,4-dioxo-1,3,8-triazaspiro[4.5]decane-6-carboxylate]",7.70 to 9.30
12,"Cc1cccnc1CN1CCC2(CC1)C(=O)N(c1ccc(-c3nnn[nH]3)cc1)C(=O)N2c1nccc(O)n1 [Compound 1-16, 1-(4-hydroxypyrimidin-2-yl)-8-[(3-methylpyridin-2-yl)methyl]-3-[4-(1H-tetrazol-5-yl)phenyl]-1,3,8-triazaspiro[4.5]decane-2,4-dione]",< 7.30
13,"Cc1cccnc1CN1CCC2(CC1)C(=O)N(c1ccc(-c3ccccc3)cc1)C(=O)N2c1cc(C(=O)O)ccn1 [Compound 1-5, 2-{3-biphenyl-4-yl-8-[(3-methylpyridin-2-yl)methyl]-2,4-dioxo-1,3,8-triazaspiro[4.5]dec-1-yl}isonicotinic acid]",7.70 to 9.30
14,"Cc1cccnc1CN1CCC2(C(=O)N(c3ccc(-c4ccccc4)cc3)C(=O)N2c2nccc(O)n2)C(C(=O)O)C1 (stereo not shown) [Compound 3-4, 3-biphenyl-4-yl-1-(4-hydroxypyrimidin-2-yl)-8-[(3-methylpyridin-2-yl)methyl]-2,4-dioxo-1,3,8-triazaspiro[4.5]decane-6-carboxylic acid]",7.70 to 9.30
15,"CCCCOC(=O)c1[nH]cnc1CN1CCC2(CC1)C(=O)N(c1ccc(-c3ccccc3)cc1)C(=O)N2c1nccc(OC)n1 [Compound 1-47, Butyl 4-{[3-biphenyl-4-yl-1-(4-methoxypyrimidin-2-yl)-2,4-dioxo-1,3,8-triazaspiro[4.5]dec-8-yl]methyl}-1-H-imidazole-5-carboxylate]",7.30 to 7.70
16,"Cc1cccnc1CN1CCC2(CC1)C(=O)N(c1ccc(-c3ccccc3)cc1)C(=O)N2c1ccc(C#N)cn1 [Compound 1-7, 6-{3-biphenyl-4-yl-8-[(3-methylpyridin-2-yl)methyl]-2,4-dioxo-1,3,8-triazaspiro[4.5]dec-1-yl}nicotinonitrile]",7.70 to 9.30
17,"CCOC(=O)C1CN(Cc2ncccc2C)CCC12C(=O)N(c1ccc(-c3ccccc3)cc1)C(=O)N2c1cc(O)ncn1 (stereo not shown) [Compound 3-6, Ethyl 3-biphenyl-4-yl-1-(6-hydroxypyrimidin-4-yl)-8-[(3-methylpyridin-2-yl)methyl]-2,4-dioxo-1,3,8-triazaspiro[4.5]decane-6-carboxylate]",7.70 to 9.30
18,"Cc1cccnc1CN1CCC2(CC1)C(=O)N(c1ccc(-c3ccccc3)cc1)C(=O)N2c1ncccc1O [Compound 1-43, 3-biphenyl-4-yl-1-(3-hydroxypyridin-2-yl)-8-[(3-methylpyridin-2-yl)methyl]-1,3,8-triazaspiro[4.5]decane-2,4-dione]",7.30 to 7.70
19,"CC(C)(C)OC(=O)CN1CCC2(CC1)C(=O)N(c1ccc(-c3ccccc3)cc1)C(=O)N2c1cnccn1 [Compound 2-2, tert-butyl (3-biphenyl-4-yl-2,4-dioxo-1-pyrazin-2-yl-1,3,8-triazaspiro[4.5]dec-8-yl)acetate]",< 7.30

# Same assay, conditions: read-out: PHD2 Binding Activity IC50
row,SMILES,pIC50
1,"Cc1cc(C(=O)O)ccc1-c1ccc(N2C(=O)N(CC(F)(F)F)C3(CCN(Cc4ncccc4C)CC3)C2=O)cn1 [Compound 11-3, 3-methyl-4-(5-{8-[(3-methylpyridin-2-yl)methyl]-2,4-dioxo-1-(2,2,2-trifluoroethyl)-1,3,8-triazaspiro[4.5]dec-3-yl}-pyridin-2-yl) benzoic acid]",7.70 to 9.30
2,"Cc1cccnc1CN1CCC2(CC1)C(=O)N(c1ccc(-c3ccccc3)cc1)C(=O)N2c1cccs1 [Compound 1-27, 3-biphenyl-4-yl-8-[(3-methylpyridin-2-yl)methyl]-1-(2-thienyl)-1,3,8-triazaspiro[4.5]decane-2,4-dione]",7.70 to 9.30
3,"Cc1cccnc1CN1CCC2(CC1)C(=O)N(c1ccc(-c3ccccc3)cc1)C(=O)N2C(=O)N[C@H](C)C(=O)O [Compound 5-4, (2R)-2-[({3-biphenyl-4-yl-8-[(3-methylpyridin-2-yl)methyl]-2,4-dioxo-1,3,8-triazaspiro[4.5]dec-1-yl}carbonyl)amino]propanoic acid]",7.70 to 9.30
4,"Cc1cccnc1CN1CCC2(CC1)C(=O)N(c1ccc(-c3ccccc3)cc1)C(=O)N2C(=O)NC(C)(C)C(=O)O [Compound 5-3, 2-[({3-biphenyl-4-yl-8-[(3-methylpyridin-2-yl)methyl]-2,4-dioxo-1,3,8-triazaspiro[4.5]dec-1-yl}carbonyl)amino]-2-methylpropanoic acid]",7.70 to 9.30

# Target: HIF-PHD1 (Homo sapiens, UniProt Q96KS0)
# Sequence (Q96KS0 whole entry): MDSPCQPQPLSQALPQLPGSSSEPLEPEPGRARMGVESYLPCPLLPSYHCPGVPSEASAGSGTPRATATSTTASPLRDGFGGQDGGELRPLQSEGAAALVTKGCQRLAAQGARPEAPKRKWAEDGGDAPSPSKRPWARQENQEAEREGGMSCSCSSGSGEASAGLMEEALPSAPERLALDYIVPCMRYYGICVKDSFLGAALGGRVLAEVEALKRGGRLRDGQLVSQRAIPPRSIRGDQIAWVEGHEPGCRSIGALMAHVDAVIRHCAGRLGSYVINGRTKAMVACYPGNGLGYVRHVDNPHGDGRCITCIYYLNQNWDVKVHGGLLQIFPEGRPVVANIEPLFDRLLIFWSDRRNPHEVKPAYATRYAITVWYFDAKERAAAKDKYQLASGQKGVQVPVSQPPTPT
# Assay: Inhibition of the catalytic activity of HIF-PHD1
# Format: biochemical
# Conditions: comparison compounds of WO 2008/030412; read-out: IC50 (nM) HIF-PHD-1
# Experimental: (§1) To each well of a 96-well plate was added 1 μL of test compound in DMSO and 20 μL of assay buffer (50 mM Tris pH 7.4/0.01% Tween-20/0.1 mg/ml bovine serum albumin/10 μM ferrous sulfate/1 mM sodium ascorbate/20 μg/ml catalase) containing 0.15 μg/ml FLAG-tagged full length PHD2 expressed in and purified from baculovirus-infected Sf9 cells. After a […] at room temperature, the enzymatic reactions were initiated by the addition of 4 μL of substrates (final concentrations of 0.2 μM 2-oxoglutarate and 0.5 μM HIF-1α peptide biotinyl-[…]). After 2 hr at room temperature, the reactions were terminated and signals were developed by the addition of a 25 μL quench/detection mix to a final concentration of 1 mM ortho-phenanthroline, 0.1 mM EDTA, 0.5 nM anti-(His)6 LANCE reagent (Perkin-Elmer Life Sciences), 100 nM AF647-labeled streptavidin (Invitrogen), and 2 μg/ml (His)6-VHL complex (S. Tan(2001) Protein Expr. Purif. 21, 224-234). The ratio of time resolved fluorescence signals at 665 and 620 nm was determined, and percent inhibition was calculated relative to an uninhibited control sample run in parallel.
# (§2) Inhibition of the catalytic activity of HIF-PHD1 and HIF-PHD3 can be determined similarly.
row,SMILES,IC50
1,CC(C)Oc1cccc(CN2CC[C@@]3(C[C@@H]2C)C(=O)N(c2ccccc2)C(=O)N3c2cccc(F)c2)c1 [Egbertson's Example 31],> 10000 nM

# Target: HIF-PHD3 (Homo sapiens, UniProt Q9H6Z9)
# Sequence (Q9H6Z9 whole entry): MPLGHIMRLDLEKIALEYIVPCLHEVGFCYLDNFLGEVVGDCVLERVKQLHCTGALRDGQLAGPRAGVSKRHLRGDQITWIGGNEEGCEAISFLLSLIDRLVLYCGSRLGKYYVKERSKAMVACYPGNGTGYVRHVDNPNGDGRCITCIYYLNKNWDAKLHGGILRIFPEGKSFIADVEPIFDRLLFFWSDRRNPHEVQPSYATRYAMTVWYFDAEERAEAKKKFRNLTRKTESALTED
# Assay: Inhibition of the catalytic activity of HIF-PHD3
# Format: biochemical
# Conditions: comparison compounds of WO 2008/030412; read-out: IC50 (nM) HIF-PHD-3
# Experimental: as §1, §2
row,SMILES,IC50
1,CC(C)Oc1cccc(CN2CC[C@@]3(C[C@@H]2C)C(=O)N(c2ccccc2)C(=O)N3c2cccc(F)c2)c1 [Egbertson's Example 31],> 10000 nM
